Data: ChEMBL document CHEMBL3525929, “Paraoxonase 1 as a major bioactivating hydrolase for olmesartan medoxomil in human blood circulation: molecular identification and contribution to plasma metabolism” (Drug Metab Dispos, 2012)

How the values were obtained:
Albumin [1] = target: T1, Albumin (Homo sapiens, UniProt P02768); assay: Prodrug conversion in human serum albumin assessed as hydrolysis measured per mg of protein at 10 uM in presence of Ca2+; assay type: ADME
[2] = Prodrug conversion in human serum LDL assessed as conversion velocity at 10 uM measured per mg of protein in presence of Tris-HCl/Ca2+; assay type: ADME, cell-free
[3] = Prodrug conversion in human serum VLDL and chylomicron assessed as distribution of hydrolyzing activity measured per ml of serum at 10 uM in presence of Tris-HCl/Ca2+; assay type: ADME, cell-free
[4] = Prodrug conversion in recombinant human PON1 192QQ mutant expressed in FreeStyle 293-F cells assessed as hydrolysis measured per mg of protein at 10 uM in presence of Zn2+; assay type: ADME, cell-based
[5] = Prodrug conversion in recombinant human PON1 192QQ mutant expressed in FreeStyle 293-F cells assessed as hydrolysis measured per mg of protein at 10 uM in presence of Ca2+; assay type: ADME, cell-based
[6] = Prodrug conversion in human serum LPDS assessed as conversion velocity per mg of protein at 10 uM in presence of Tris-HCl/Ca2+; assay type: ADME, cell-free
[7] = Prodrug conversion in recombinant human PON1 192QQ mutant expressed in FreeStyle 293-F cells assessed as hydrolysis measured per mg of protein at 10 uM in presence of Mg2+; assay type: ADME, cell-based
[8] = Prodrug conversion in human serum LPDS assessed as distribution of hydrolyzing activity measured per ml of serum at 10 uM in presence of KPB; assay type: ADME, cell-free
Plasma [9] = assay: Prodrug conversion in human plasma assessed as hydrolysis measured per mg of protein by single-enzyme Michaelis-Menten model; assay type: ADME, cell-free
Plasma [10] = assay: Prodrug conversion in human plasma assessed as hydrolysis measured per mg of protein at 10 uM in presence of Zn2+; assay type: ADME, cell-free
[11] = Prodrug conversion in human serum LPDS assessed as distribution of hydrolyzing activity measured per ml of serum at 10 uM in presence of Tris-HCl/Ca2+; assay type: ADME, cell-free
[12] = Prodrug conversion in human serum HDL assessed as conversion velocity per mg of protein at 10 uM in presence of Tris-HCl/Ca2+; assay type: ADME, cell-free
Albumin [13] = target: T1, Albumin; assay: Prodrug conversion in human serum albumin assessed as hydrolysis measured per mg of protein at 10 uM in presence of Zn2+; assay type: ADME
Plasma [14] = assay: Prodrug conversion in human plasma assessed as hydrolysis measured per mg of protein at 10 uM in presence of Mg2+; assay type: ADME, cell-free
Plasma [15] = assay: Prodrug conversion in human plasma assessed as hydrolysis in presence of 4 fold anti-PON1 IgG/plasma ratio; assay type: ADME
[16] = Prodrug conversion in recombinant human PON1 192QQ mutant expressed in FreeStyle 293-F cells assessed as hydrolysis by single-enzyme Michaelis-Menten model; assay type: ADME, cell-based
[17] = Prodrug conversion in human serum VLDL and chylomicron assessed as conversion velocity at 10 uM measured per mg of protein in presence of Tris-HCl/Ca2+; assay type: ADME, cell-free
[18] = Prodrug conversion in recombinant human PON1 192QQ mutant expressed in FreeStyle 293-F cells measured per mg of protein by single-enzyme Michaelis-Menten model; assay type: ADME, cell-based
[19] = Prodrug conversion in recombinant human PON1 192RR mutant expressed in FreeStyle 293-F cells measured per mg of protein by single-enzyme Michaelis-Menten model; assay type: ADME, cell-based
[20] = Prodrug conversion in human serum LDL assessed as distribution of hydrolyzing activity measured per ml of serum at 10 uM in presence of Tris-HCl/Ca2+; assay type: ADME, cell-free
[21] = Prodrug conversion in human serum HDL assessed as distribution of hydrolyzing activity measured per ml of serum at 10 uM in presence of Tris-HCl/Ca2+; assay type: ADME, cell-free
[22] = Ratio of Vmax to Km in recombinant human PON1 192RR mutant expressed in FreeStyle 293-F cells assessed as hydrolysis measured per mg of protein by single-enzyme Michaelis-Menten model; assay type: ADME, cell-based
[23] = Prodrug conversion in human serum LPDS assessed as conversion velocity per mg of protein at 10 uM in presence of KPB; assay type: ADME, cell-free
Plasma [24] = assay: Prodrug conversion in human plasma assessed as hydrolysis measured per mg of protein at 10 uM in presence of Ca2+; assay type: ADME, cell-free
[25] = Prodrug conversion in recombinant human PON1 192RR mutant expressed in FreeStyle 293-F cells assessed as hydrolysis measured per mg of protein at 10 uM in presence of Zn2+; assay type: ADME, cell-based
Albumin [26] = target: T1, Albumin; assay: Ratio of Vmax to Km in human serum albumin assessed as hydrolysis measured per mg of protein by single-enzyme Michaelis-Menten model; assay type: ADME
Albumin [27] = target: T1, Albumin; assay: Prodrug conversion in human serum albumin assessed as hydrolysis measured per mg of protein at 10 uM in presence of Mg2+; assay type: ADME
Plasma [28] = assay: Ratio of Vmax to Km in human plasma assessed as hydrolysis measured per mg of protein by single-enzyme Michaelis-Menten model; assay type: ADME
Plasma [29] = assay: Prodrug conversion in human plasma assessed as hydrolysis by single-enzyme Michaelis-Menten model; assay type: ADME, cell-free
[30] = Prodrug conversion in recombinant human PON1 192RR mutant expressed in FreeStyle 293-F cells assessed as hydrolysis by single-enzyme Michaelis-Menten model; assay type: ADME, cell-based
[31] = Prodrug conversion in recombinant human PON1 192RR mutant expressed in FreeStyle 293-F cells assessed as hydrolysis measured per mg of protein at 10 uM in presence of Ca2+; assay type: ADME, cell-based
[32] = Ratio of Vmax to Km in recombinant human PON1 192QQ mutant expressed in FreeStyle 293-F cells assessed as hydrolysis measured per mg of protein by single-enzyme Michaelis-Menten model; assay type: ADME, cell-based
[33] = Prodrug conversion in recombinant human PON1 192RR mutant expressed in FreeStyle 293-F cells assessed as hydrolysis measured per mg of protein at 10 uM in presence of Mg2+; assay type: ADME, cell-based
[34] = tested on: CCCc1nc(C(C)(C)O)c(C(=O)OCc2oc(=O)oc2C)n1Cc1ccc(-c2ccccc2-c2nnn[nH]2)cc1; assay: Prodrug conversion in human serum albumin assessed as hydrolysis by single-enzyme Michaelis-Menten model; assay type: ADME

T1 sequence (P02768 whole entry): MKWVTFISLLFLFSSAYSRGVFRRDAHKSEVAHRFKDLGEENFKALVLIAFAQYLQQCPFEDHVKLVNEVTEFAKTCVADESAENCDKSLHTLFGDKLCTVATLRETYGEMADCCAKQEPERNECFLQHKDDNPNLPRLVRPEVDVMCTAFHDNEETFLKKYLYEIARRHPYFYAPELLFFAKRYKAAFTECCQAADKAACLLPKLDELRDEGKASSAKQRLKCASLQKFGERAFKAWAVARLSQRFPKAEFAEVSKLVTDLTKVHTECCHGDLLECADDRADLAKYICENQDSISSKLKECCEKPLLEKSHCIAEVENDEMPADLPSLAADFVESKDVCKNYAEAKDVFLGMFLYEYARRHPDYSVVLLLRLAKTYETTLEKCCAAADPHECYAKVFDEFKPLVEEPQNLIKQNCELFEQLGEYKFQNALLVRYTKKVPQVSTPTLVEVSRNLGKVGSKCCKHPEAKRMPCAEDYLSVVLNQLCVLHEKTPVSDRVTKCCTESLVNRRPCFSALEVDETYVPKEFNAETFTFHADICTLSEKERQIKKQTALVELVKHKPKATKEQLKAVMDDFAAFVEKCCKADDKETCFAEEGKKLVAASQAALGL

`CCCc1nc(C(C)(C)O)c(C(=O)OCc2oc(=O)oc2C)n1Cc1ccc(-c2ccccc2-c2nnn[nH]2)cc1` [OLMESARTAN MEDOXOMIL] showed an Activity (Albumin [1]) of 0.0102 nmol/min, an Activity [2] of 12.6 nmol/min and an Activity [3] of 2.42 nmol/min. The Activity [4] was 0.75 nmol/min, the Activity [5] was 9.5 nmol/min and the Activity [6] was 0.516 nmol/min. For the same compound, the Activity [7] was 0.65 nmol/min, the Activity [8] was 9.04 nmol/min and the Vmax (Plasma [9]) was 18.6 nmol/min. The Activity (Plasma [10]) was 0.0918 nmol/min, the Activity [11] was 35.6 nmol/min and the Activity [12] was 277 nmol/min. The Activity (Albumin [13]) was 0.0164 nmol/min, the Activity (Plasma [14]) was 0.266 nmol/min and the Drug metabolism (Plasma [15]) was “metabolite_not_detected”. It also gave a Km [16] of 157 µM, an Activity [17] of 13.9 nmol/min and a Vmax [18] of 124 nmol/min. The Vmax [19] was 140 nmol/min, the Activity [20] was 4.07 nmol/min and the Activity [21] was 596 nmol/min. The Vmax/Km [22] was 1.37 mL/min, the Activity [23] was 0.131 nmol/min and the Activity (Plasma [24]) was 7.91 nmol/min. It also gave an Activity [25] of 1.75 nmol/min, a Vmax/Km (Albumin [26]) of 0.00737 mL/min and an Activity (Albumin [27]) of 0.0106 nmol/min. The Vmax/Km (Plasma [28]) was 2.77 mL/min, the Km (Plasma [29]) was 6.71 µM and the Km [30] was 102 µM. For the same compound, the Activity [31] was 20.6 nmol/min, the Vmax/Km [32] was 0.79 mL/min and the Activity [33] was 2.25 nmol/min.

Albumin (Homo sapiens) gave a Km [34] of 354 µM and a Vmax [34] of 0.00261 µmol/min.
